# Data as given in PMC3433420 (PLoS ONE, 2012).
# Residues, ends and D or L forms follow the SMILES beside them.
# How the values were obtained:
# SH2 and PTB domains [1] = biological target: T1, SH2 and PTB domains (Homo sapiens, UniProt P43405); test: In-house protein microarrays (with or without 5 mM DTT), protein named per line; type: binding
# T1 construct: thioredoxin; made in house; host or cells: BL21(DE3)pLysS E. coli
# How it was run: (§1)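 Recombinant domains (~40 µM) spotted in duplicate on aldehyde slides, quenched 1 h at room temperature in HEPES/KCl/Tween-20 buffer pH 7.8 with 5 mM DTT and 1% BSA, then probed with rhodamine-labeled peptide. Thioredoxin-subtracted mean fluorescence fitted for KD.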
# SH2 and PTB domains [2] = biological target: T2, SH2 and PTB domains (Homo sapiens, UniProt P12931); test: as above; type: binding; details: protein SRC
# T2 construct: thioredoxin; made in house; host or cells: BL21(DE3)pLysS E. coli
# How it was run: as §1
# VAV3 SH2 domain = biological target: T3, VAV3 SH2 domain (Homo sapiens, UniProt Q9UKW4); test: FP saturation binding assay; details: protein VAV3, high-confidence ErbB interactions, mean of replicate hits
# T3 construct: 6X His; thioredoxin; made in house; host or cells: BL21(DE3)pLysS E. coli
# How it was run: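 Rhodamine-labeled peptides (10 nM final) were titrated with 12 SH2 domain concentrations (0.002–10 µM) in 20 mM HEPES, 100 mM KCl, 0.1% Tween-20, 5 mM DTT, pH 7.8. After 20 min at room temperature in the dark, FP (ex 530/em 555 nm) was read. KDs came from nonlinear least-squares fits.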
# PTPN11-N SH2 domain = biological target: T4, PTPN11-N SH2 domain (Homo sapiens, UniProt Q06124); test: FP saturation binding assay
# T4 sequence (Q06124 6-102 limits assumed): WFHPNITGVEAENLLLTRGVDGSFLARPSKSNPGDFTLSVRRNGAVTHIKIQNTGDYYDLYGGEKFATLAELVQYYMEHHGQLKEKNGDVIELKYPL
# SHC1-PTB domain = biological target: T5, SHC1-PTB domain (Homo sapiens, UniProt P29353); test: FP saturation binding assay
# T5 sequence (P29353 156-339 limits assumed): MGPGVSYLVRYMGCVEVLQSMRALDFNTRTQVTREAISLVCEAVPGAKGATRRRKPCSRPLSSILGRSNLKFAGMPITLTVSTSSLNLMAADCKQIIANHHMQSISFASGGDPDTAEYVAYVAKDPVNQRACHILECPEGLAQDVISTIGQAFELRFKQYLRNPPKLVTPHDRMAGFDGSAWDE
# [3] = protein SYK-NC, PM assay replicate # 39307, array fabrication # 39286
# [4] = protein SYK-NC, PM assay replicate # 39337, array fabrication # 39329
# [5] = protein SYK-NC, PM assay replicate # 39351, array fabrication # 39336
# [6] = protein SYK-NC, PM assay replicate # 39352, array fabrication # 39336
# [7] = PM assay replicate # 39307, array fabrication # 39286
# [8] = protein SYK-N, PM assay replicate # 39336, array fabrication # 39329
# [9] = protein SYK-NC, PM assay replicate # 39336, array fabrication # 39329
# T2 sequence (P12931 whole entry, the tested form may be a part): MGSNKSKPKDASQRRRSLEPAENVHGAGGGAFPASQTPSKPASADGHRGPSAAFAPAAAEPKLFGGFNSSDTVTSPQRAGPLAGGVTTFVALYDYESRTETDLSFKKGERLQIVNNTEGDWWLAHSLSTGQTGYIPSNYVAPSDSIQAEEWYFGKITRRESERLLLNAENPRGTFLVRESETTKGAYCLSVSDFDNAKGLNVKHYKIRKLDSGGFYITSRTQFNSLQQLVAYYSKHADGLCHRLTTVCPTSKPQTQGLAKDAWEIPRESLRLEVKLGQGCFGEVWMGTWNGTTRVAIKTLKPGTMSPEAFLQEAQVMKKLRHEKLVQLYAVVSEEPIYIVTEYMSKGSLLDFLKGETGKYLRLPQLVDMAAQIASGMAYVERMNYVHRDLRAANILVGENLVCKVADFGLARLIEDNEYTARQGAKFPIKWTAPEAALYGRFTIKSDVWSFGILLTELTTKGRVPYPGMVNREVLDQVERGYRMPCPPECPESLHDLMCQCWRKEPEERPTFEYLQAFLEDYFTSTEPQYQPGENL
# T3 sequence (Q9UKW4 672-766 limits assumed): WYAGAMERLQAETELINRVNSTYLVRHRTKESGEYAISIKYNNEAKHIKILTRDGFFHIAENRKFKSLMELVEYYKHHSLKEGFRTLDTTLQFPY
smiles,measurement,setting,value
CCN(CC)c1ccc2c(-c3ccc(C(=O)N[C@@H](CC(N)=O)C(=O)NCC(=O)N4CCC[C@H]4C(=O)N4CCC[C@H]4C(=O)N[C@@H](CCCCN)C(=O)N[C@@H](C)C(=O)N[C@@H](CCC(=O)O)C(=O)N[C@@H](CC(=O)O)C(=O)N[C@@H](CCC(=O)O)C(=O)N[C@@H](Cc4ccc(OP(=O)(O)O)cc4)C(=O)N[C@H](C(=O)N[C@@H](CC(N)=O)C(=O)N[C@@H](CCC(=O)O)C(=O)N4CCC[C@H]4C(=O)N[C@@H](CC(C)C)C(=O)N[C@@H](Cc4ccc(O)cc4)C(=O)N[C@@H](CC(C)C)C(=O)N[C@@H](CC(=O)O)C(=O)O)C(C)C)cc3C(=O)[O-])c3ccc(=[N+](CC)CC)cc-3oc2c1 [ErbB4 1202 (18-mer)] (HELM PEPTIDE1{[CCN(CC)c1ccc2c(-c3ccc(C(=O)[*:2])cc3C(=O)[O-])c3ccc(=[N+](CC)CC)cc-3oc2c1].N.G.P.P.K.A.E.D.E.[O=C([C@H](Cc1ccc(OP(=O)(O)O)cc1)N[*:1])[*:2]].V.N.E.P.L.Y.L.D}$$$$V2.0),Kd,SH2 and PTB domains [1]; [3],0.95 µM
same,Kd,SH2 and PTB domains [1]; [4],1.42 µM
same,Kd,SH2 and PTB domains [1]; [5],0.81 µM
same,Kd,SH2 and PTB domains [1]; [6],1.15 µM
same,Kd,SH2 and PTB domains [2]; [7],0.40 µM
CSCC[C@H](NC(=O)[C@H](Cc1ccc(OP(=O)(O)O)cc1)NC(=O)CNC(=O)[C@H](CCC(=O)O)NC(=O)[C@H](CCC(=O)O)NC(=O)[C@H](CC(=O)O)NC(=O)[C@H](CC(C)C)NC(=O)[C@H](CCC(=O)O)NC(=O)CNC(=O)[C@H](CCCNC(=N)N)NC(=O)[C@@H]1CCCN1)C(=O)N[C@H](C(=O)N1CCC[C@H]1C(=O)N[C@@H](CCSC)C(=O)N[C@@H](CCCNC(=N)N)C(=O)N[C@@H](CC(=O)O)C(=O)N[C@@H](CCCCN)C(=O)N[C@@H](CC(=O)O)C(=O)O)[C@@H](C)O [ErbB4 1150 18-mer] (HELM PEPTIDE1{P.R.G.E.L.D.E.E.G.[O=C([C@H](Cc1ccc(OP(=O)(O)O)cc1)N[*:1])[*:2]].M.T.P.M.R.D.K.D}$$$$V2.0),Kd,VAV3 SH2 domain,0.18 µM
CC(C)[C@H](NC(=O)[C@H](CC(=O)O)NC(=O)[C@@H]1CCCN1C(=O)[C@H](CCC(N)=O)NC(=O)[C@H](CC(N)=O)NC(=O)[C@@H](NC(=O)[C@H](Cc1ccc(OP(=O)(O)O)cc1)NC(=O)[C@H](CCC(=O)O)NC(=O)[C@@H]1CCCN1C(=O)[C@H](CCC(N)=O)NC(=O)[C@@H]1CCCN1)C(C)C)C(=O)N[C@@H](CCCNC(=N)N)C(=O)N[C@@H](CC(=O)O)C(=O)O [ErbB2 1139 13-mer] (HELM PEPTIDE1{P.Q.P.E.[O=C([C@H](Cc1ccc(OP(=O)(O)O)cc1)N[*:1])[*:2]].V.N.Q.P.D.V.R.D}$$$$V2.0),Kd,PTPN11-N SH2 domain,8.86 µM
CSCC[C@H](NC(=O)[C@H](CCC(=O)O)NC(=O)[C@H](CCC(=O)O)NC(=O)[C@H](Cc1ccc(OP(=O)(O)O)cc1)NC(=O)CNC(=O)[C@H](CCC(N)=O)NC(=O)[C@H](CCC(=O)O)NC(=O)[C@@H](N)CO)C(=O)N[C@@H](CCCNC(=N)N)C(=O)N[C@@H](C)C(=O)N[C@@H](Cc1ccccc1)C(=O)N[C@@H](CCC(N)=O)C(=O)N[C@@H](CC(=O)O)C(=O)O [ErbB3 1289 13-mer] (HELM PEPTIDE1{S.E.Q.G.[O=C([C@H](Cc1ccc(OP(=O)(O)O)cc1)N[*:1])[*:2]].E.E.M.R.A.F.Q.D}$$$$V2.0),Kd,VAV3 SH2 domain,8.4 µM
CSCC[C@H](NC(=O)[C@H](Cc1ccc(OP(=O)(O)O)cc1)NC(=O)[C@H](CCC(=O)O)NC(=O)[C@H](Cc1ccc(O)cc1)NC(=O)CNC(=O)[C@@H](N)CC(C)C)C(=O)N[C@@H](CC(=O)O)C(=O)N[C@H](C(=O)NCC(=O)N[C@@H](CO)C(=O)N[C@@H](CC(=O)O)C(=O)N[C@@H](CC(C)C)C(=O)N[C@@H](CC(=O)O)C(=O)O)C(C)C [ErbB3 1224 13-mer] (HELM PEPTIDE1{L.G.Y.E.[O=C([C@H](Cc1ccc(OP(=O)(O)O)cc1)N[*:1])[*:2]].M.D.V.G.S.D.L.D}$$$$V2.0),Kd,PTPN11-N SH2 domain,4.8 µM
same,Kd,SHC1-PTB domain,5.27 µM
CC[C@H](C)[C@H](NC(=O)[C@H](CC(N)=O)NC(=O)[C@H](CC(N)=O)NC(=O)[C@H](CCCCN)NC(=O)[C@H](CC(C)C)NC(=O)[C@H](Cc1ccc(OP(=O)(O)O)cc1)NC(=O)[C@H](CCC(=O)O)NC(=O)[C@H](C)NC(=O)[C@H](CCCCN)NC(=O)CNC(=O)[C@H](CC(C)C)NC(=O)[C@@H](NC(=O)[C@H](CC(N)=O)NC(=O)[C@H](C)NC(=O)[C@@H](N)Cc1ccccc1)[C@@H](C)O)C(=O)N[C@@H](CC(C)C)C(=O)N[C@@H](CO)C(=O)N[C@@H](CC(=O)O)C(=O)O [ErbB4 pY1221 (18-mer)] (HELM PEPTIDE1{F.A.N.T.L.G.K.A.E.[O=C([C@H](Cc1ccc(OP(=O)(O)O)cc1)N[*:1])[*:2]].L.K.N.N.I.L.S.D}$$$$V2.0),Kd,"SH2 and PTB domains [1]; protein SYK-N, PM assay replicate # 39307, array fabrication # 39286",9.49 µM
same,Kd,"SH2 and PTB domains [1]; protein SYK-N, PM assay replicate # 39352, array fabrication # 39336",15.60 µM
same,Kd,SH2 and PTB domains [1]; [3],0.29 µM
same,Kd,SH2 and PTB domains [1]; [5],0.81 µM
same,Kd,SH2 and PTB domains [1]; [6],1.29 µM
same,Kd,SH2 and PTB domains [2]; [7],0.44 µM
CC(C)C[C@H](NC(=O)[C@@H]1CCCN1)C(=O)N[C@@H](CCC(N)=O)C(=O)N[C@@H](CCCNC(=N)N)C(=O)N[C@@H](Cc1ccc(OP(=O)(O)O)cc1)C(=O)N[C@@H](CO)C(=O)N[C@@H](CCC(=O)O)C(=O)N[C@@H](CC(=O)O)C(=O)N1CCC[C@H]1C(=O)N[C@H](C(=O)N[C@H](C(=O)N1CCC[C@H]1C(=O)N[C@@H](CC(=O)O)C(=O)O)C(C)C)[C@@H](C)O [ErbB2 pY1112] (HELM PEPTIDE1{P.L.Q.R.[O=C([C@H](Cc1ccc(OP(=O)(O)O)cc1)N[*:1])[*:2]].S.E.D.P.T.V.P.D}$$$$V2.0),Kd,"SH2 and PTB domains [1]; protein SYK-N, PM assay replicate # 39331, array fabrication # 39329",3.62 µM
same,Kd,SH2 and PTB domains [1]; [8],14.58 µM
same,Kd,"SH2 and PTB domains [1]; protein SYK-NC, PM assay replicate # 39331, array fabrication # 39329",0.89 µM
same,Kd,SH2 and PTB domains [1]; [9],0.80 µM
same,Kd,"SH2 and PTB domains [2]; PM assay replicate # 39331, array fabrication # 39329",183.21 µM
CC(C)C[C@H](NC(=O)[C@@H]1CCCN1C(=O)[C@H](C)NC(=O)[C@@H](NC(=O)[C@H](Cc1ccc(OP(=O)(O)O)cc1)NC(=O)CNC(=O)[C@H](CC(=O)O)NC(=O)[C@@H](NC(=O)[C@@H](N)CCC(=O)O)[C@@H](C)O)C(C)C)C(=O)N[C@H](C(=O)N[C@@H](CS)C(=O)N[C@@H](CO)C(=O)N[C@@H](CC(=O)O)C(=O)O)[C@@H](C)O [ErbB2 pY1127],Kd,"SH2 and PTB domains [1]; protein SYK-C, PM assay replicate # 39336, array fabrication # 39329",2.39 µM
same,Kd,"SH2 and PTB domains [1]; protein SYK-C, PM assay replicate # 39337, array fabrication # 39329",1.92 µM
same,Kd,SH2 and PTB domains [1]; [8],2.33 µM
same,Kd,"SH2 and PTB domains [1]; protein SYK-N, PM assay replicate # 39337, array fabrication # 39329",3.21 µM
same,Kd,SH2 and PTB domains [1]; [9],1.30 µM
same,Kd,SH2 and PTB domains [1]; [4],0.96 µM
same,Kd,"SH2 and PTB domains [2]; PM assay replicate # 39336, array fabrication # 39329",0.035 µM
same,Kd,"SH2 and PTB domains [2]; PM assay replicate # 39337, array fabrication # 39329",0.38 µM
same,Kd,"SH2 and PTB domains [2]; PM assay replicate # 39603, array fabrication # 39392",0.25 µM
CC(C)C[C@H](NC(=O)[C@H](CC(N)=O)NC(=O)[C@@H](N)CC(=O)O)C(=O)N[C@@H](Cc1ccc(O)cc1)C(=O)N[C@@H](Cc1ccc(OP(=O)(O)O)cc1)C(=O)N[C@@H](Cc1c[nH]c2ccccc12)C(=O)N[C@@H](CC(=O)O)C(=O)N[C@@H](CCC(N)=O)C(=O)N[C@@H](CC(=O)O)C(=O)N1CCC[C@H]1C(=O)N1CCC[C@H]1C(=O)N[C@@H](CCC(=O)O)C(=O)N[C@@H](CC(=O)O)C(=O)O [ErbB2 1222 13-mer] (HELM PEPTIDE1{D.N.L.Y.[O=C([C@H](Cc1ccc(OP(=O)(O)O)cc1)N[*:1])[*:2]].W.D.Q.D.P.P.E.D}$$$$V2.0),Kd,SHC1-PTB domain,2.96 µM
